Results on 15 molecules are retold here after US20240409585A1, “MACROCYCLIC IMMUNOMODULATORS” (priority 2021, published 2024).

Read-outs that look alike come from different tables or passages of the source. Bridge positions count the residues as written; N and C are the ends. Square brackets hold non-standard residues; d marks the D form. Peptide text beside a SMILES is read from it. * marks the point of attachment. ξ: configuration not given here. Tyr(3-NO2) = N[C@@H](Cc1ccc(O)c([N+](=O)[O-])c1)C(=O)O; Ala(morpholin-4-yl) = N[C@@H](CN1CCOCC1)C(=O)O; Phe(4-COOH) = N[C@@H](Cc1ccc(C(=O)O)cc1)C(=O)O; Bip = N[C@@H](Cc1ccc(-c2ccccc2)cc1)C(=O)O; Phe(3-CN) = N#Cc1cccc(C[C@H](N)C(=O)O)c1; Phe(2-CN) = N#Cc1ccccc1C[C@H](N)C(=O)O; Phe(3-Me) = Cc1cccc(C[C@H](N)C(=O)O)c1; 2Nal = N[C@@H](Cc1ccc2ccccc2c1)C(=O)O; d1Nal = N[C@H](Cc1cccc2ccccc12)C(=O)O; Val(3-OH) = CC(C)(O)[C@H](N)C(=O)O; ξPhe(2-Me) = Cc1ccccc1CC(N)C(=O)O; 3Pal = N[C@@H](Cc1cccnc1)C(=O)O; Cha = N[C@@H](CC1CCCCC1)C(=O)O; Cit = NC(=O)NCCC[C@H](N)C(=O)O; Ile(3ξ) = CCC(C)[C@H](N)C(=O)O; Thr(3ξ) = CC(O)[C@H](N)C(=O)O; Dap(Me) = CNC[C@H](N)C(=O)O; Carboxymethyl = O=C(O)C*; NMeA = CN[C@@H](C)C(=O)O; Orn = NCCC[C@H](N)C(=O)O; Dab = NCC[C@H](N)C(=O)O; Nva = CCC[C@H](N)C(=O)O; Dap = NC[C@H](N)C(=O)O

In the assay the target is T1, PE-labeled human PD-L1-Ig binding to Jurkat cell line over-expressing human PD-1 (Jurkat-PD-1) (Homo sapiens, UniProt Q15116).
T1 construct: expressed in transfected cells; host or cells: Jurkat
T1 sequence (Q15116 25-288): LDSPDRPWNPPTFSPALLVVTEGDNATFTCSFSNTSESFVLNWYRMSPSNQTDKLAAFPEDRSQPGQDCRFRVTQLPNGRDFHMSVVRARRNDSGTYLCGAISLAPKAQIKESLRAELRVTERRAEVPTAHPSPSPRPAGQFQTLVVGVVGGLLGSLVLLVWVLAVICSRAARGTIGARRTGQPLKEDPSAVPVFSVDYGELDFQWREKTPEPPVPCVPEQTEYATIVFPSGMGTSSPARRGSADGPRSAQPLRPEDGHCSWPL
Nature of the assay: Jurkat-PD-1 Cell Binding High-Content Screening Assay (CBA): Method 1.

The mark [1] stands for this setting: Jurkat-hPD-1 cells, PE-labeled PD-L1-Ig 20 nM final, read-out: Jurkat HPDL1 PD1 IC50 (uM) (Method 1).

In the case of `Cc1cccc(C[C@@H]2NC(=O)[C@H](CC(=O)O)NC(=O)[C@H](Cc3ccc(C(=O)O)cc3)NC(=O)[C@H](Cc3ccc(OCC(=O)O)cc3)NC(=O)CSC[C@@H](C(N)=O)NC(=O)[C@H]([C@@H](C)O)NC(=O)[C@H](C(C)C)NC(=O)[C@H](CC3CCCCC3)NC(=O)[C@H](CC(N)=O)NC(=O)[C@@H](CC(C)C)NC(=O)[C@H](C)N(C)C(=O)[C@H](C(C)C)NC(=O)[C@H](Cc3ccc(-c4ccccc4)cc3)NC(=O)[C@H](CC(C)C)NC2=O)c1` [Compound 1683] ({CH2CO}-Y(Carboxymethyl)[Phe(4-COOH)]D[Phe(3-Me)]L[Bip]V[NMeA][dL]N[Cha]VTC-NH2; thioether N-14), the IC50 under setting [1] amounted to 0.03 µM.
Consider `CC(C)C[C@@H]1NC(=O)[C@H](CCCN)NC(=O)[C@@H](Cc2cccc3ccccc23)NC(=O)[C@H](C)N(C)C(=O)[C@H](CCCNC(=N)N)NC(=O)[C@H](Cc2ccc(-c3ccccc3)cc2)NC(=O)[C@H](C(C)C)NC(=O)[C@H](Cc2c[nH]c3ccccc23)NC(=O)[C@H](CC(=O)O)NC(=O)[C@H](Cc2ccc(O)cc2)NC(=O)[C@H](CC(N)=O)NC(=O)CSC[C@@H](C(=O)N[C@@H](C)C(N)=O)NC(=O)[C@H]([C@@H](C)O)NC(=O)[C@H](C(C)C)NC1=O` [Compound 1182] ({CH2CO}-NYDWV[Bip]R[NMeA][d1Nal][Orn]LVTCA-NH2; thioether N-14), for which the IC50 under setting [1] was found to be 0.3 µM.
As for `CC(C)C[C@@H]1NC(=O)[C@H](CCN)NC(=O)[C@@H](CC(C)C)NC(=O)[C@H](C)N(C)C(=O)CNC(=O)[C@H](Cc2ccc(-c3ccccc3)cc2)NC(=O)[C@H](C(C)C)NC(=O)[C@H](Cc2c[nH]c3ccccc23)NC(=O)[C@H](CC(=O)O)NC(=O)[C@H](Cc2ccc(O)cc2)NC(=O)[C@H](CC(N)=O)NC(=O)CSC[C@@H](C(=O)N[C@@H](C)C(N)=O)NC(=O)[C@H]([C@@H](C)O)NC(=O)[C@H](C(C)C)NC1=O` [Compound 1281] ({CH2CO}-NYDWV[Bip]G[NMeA][dL][Dab]LVTCA-NH2; thioether N-14), the IC50 under setting [1] stood at 0.33 µM.
Consider `Cc1cccc(C[C@@H]2NC(=O)[C@H](CC(=O)O)NC(=O)[C@H](Cc3ccc(OCC(=O)O)cc3)NC(=O)[C@H](CN3CCOCC3)NC(=O)CSC[C@@H](C(=O)N[C@@H](CCN)C(N)=O)NC(=O)[C@H](CCCN)NC(=O)[C@H](C(C)C)NC(=O)[C@H](Cc3ccc4ccccc4c3)NC(=O)[C@H](CCN)NC(=O)[C@@H](CC(C)C)NC(=O)[C@H](C)N(C)C(=O)[C@H](CCC(N)=O)NC(=O)[C@H](Cc3ccc(-c4ccccc4)cc3)NC(=O)[C@H](Cc3ccc(C(=O)O)cc3)NC2=O)c1` [Example 5044] ({CH2CO}-[Ala(morpholin-4-yl)]Y(Carboxymethyl)D[Phe(3-Me)][Phe(4-COOH)][Bip]Q[NMeA][dL][Dab][2Nal]V[Orn]C[Dab]-NH2; thioether N-14), for which, under “Jurkat-PD-1 cells, PE-labeled PD-L1-Ig, μM, read-out: CBA Method 1 μM”, the IC50 was determined as 0.131 µM.
Regarding `CC[C@H](C)[C@@H]1NC(=O)[C@H](Cc2ccc(-c3ccccc3)cc2)NC(=O)[C@H](C(C)C)NC(=O)[C@H](Cc2c[nH]c3ccccc23)NC(=O)[C@H](CC(=O)O)NC(=O)[C@H](Cc2cccc(C#N)c2)NC(=O)[C@H](CC(N)=O)NC(=O)CSC[C@@H](C(=O)N[C@@H](C)C(N)=O)NC(=O)[C@H]([C@@H](C)O)NC(=O)[C@H](C(C)C)NC(=O)[C@H](CC(C)C)NC(=O)[C@H](CCN)NC(=O)[C@@H](CC(C)C)NC(=O)[C@H](C)N(C)C1=O` [Compound 1397] ({CH2CO}-N[Phe(3-CN)]DWV[Bip]I[NMeA][dL][Dab]LVTCA-NH2; thioether N-14), the IC50 under setting [1] is 0.02 µM.
Still for that read-out and setting: with `CC[C@H](C)[C@@H]1NC(=O)[C@H](Cc2ccc(-c3ccccc3)cc2)NC(=O)[C@H](C(C)C)NC(=O)[C@H](Cc2c[nH]c3ccccc23)NC(=O)[C@H](CC(=O)O)NC(=O)[C@H](Cc2ccc(O)c([N+](=O)[O-])c2)NC(=O)[C@H](CN)NC(=O)CSC[C@@H](C(=O)N[C@@H](C)C(N)=O)NC(=O)[C@H]([C@@H](C)O)NC(=O)[C@H](C(C)C)NC(=O)[C@H](CC(C)C)NC(=O)[C@H](CCN)NC(=O)[C@@H](CC(C)C)NC(=O)[C@H](C)N(C)C1=O` [Compound 1409] ({CH2CO}-[Dap][Tyr(3-NO2)]DWV[Bip]I[NMeA][dL][Dab]LVTCA-NH2; thioether N-14) the figure was 0.04 µM.
As to `CC(C)C[C@@H]1NC(=O)[C@H](CCN)NC(=O)[C@@H](CC(C)C)NC(=O)[C@H](C)N(C)C(=O)[C@H](CCCNC(=N)N)NC(=O)[C@H](Cc2ccc(-c3ccccc3)cc2)NC(=O)[C@H](C(C)C)NC(=O)[C@H](Cc2ccccc2C#N)NC(=O)[C@H](CC(=O)O)NC(=O)[C@H](Cc2ccc(O)cc2)NC(=O)[C@H](Cc2ccccc2)NC(=O)CSC[C@@H](C(=O)N[C@@H](C)C(N)=O)NC(=O)[C@H]([C@@H](C)O)NC(=O)[C@H](C(C)C)NC1=O` [Compound 1204] ({CH2CO}-FYD[Phe(2-CN)]V[Bip]R[NMeA][dL][Dab]LVTCA-NH2; thioether N-14), the IC50 under setting [1] is 0.33 µM.
In the case of `CCC(C)[C@@H]1NC(=O)[C@H](Cc2ccc(-c3ccccc3)cc2)NC(=O)[C@H](C(C)C)NC(=O)[C@H](Cc2c[nH]c3ccccc23)NC(=O)[C@H](CC(=O)O)NC(=O)[C@H](Cc2ccc(O)cc2)NC(=O)[C@H](CNC)NC(=O)CSC[C@@H](C(=O)N[C@@H](C)C(N)=O)NC(=O)[C@H](C(C)O)NC(=O)[C@H](C(C)C)NC(=O)[C@H](CC2CCCCC2)NC(=O)[C@H](CCN)NC(=O)[C@@H](CC(C)C)NC(=O)[C@H](C)N(C)C1=O` (stereo partly drawn) [Compound 2050] ({CH2CO}-[Dap(Me)]YDWV[Bip][Ile(3ξ)][NMeA][dL][Dab][Cha]V[Thr(3ξ)]CA-NH2; thioether N-14), the IC50 under setting [1] came out at 0.01 µM.
Take `CC[C@H](C)[C@@H]1NC(=O)[C@H](Cc2ccc(-c3ccccc3)cc2)NC(=O)[C@H](C(C)(C)O)NC(=O)[C@H](Cc2cccc(C)c2)NC(=O)[C@H](CC(=O)O)NC(=O)[C@H](Cc2ccc(O)cc2)NC(=O)[C@H](CC(N)=O)NC(=O)CSC[C@@H](C(=O)N[C@@H](CCN)C(N)=O)NC(=O)[C@H]([C@@H](C)O)NC(=O)[C@H](C(C)(C)O)NC(=O)[C@H](CC(C)C)NC(=O)[C@H](CCN)NC(=O)[C@@H](CC(C)C)NC(=O)[C@H](C)N(C)C1=O` [Compound 1687] ({CH2CO}-NYD[Phe(3-Me)][Val(3-OH)][Bip]I[NMeA][dL][Dab]L[Val(3-OH)]TC[Dab]-NH2; thioether N-14): the IC50 under setting [1] amounted to 0.11 µM.
As for `CCC[C@@H]1NC(=O)[C@H](C)N(C)C(=O)[C@H](C(C)C)NC(=O)[C@H](Cc2ccc(-c3ccccc3)cc2)NC(=O)[C@H](CC(C)C)NC(=O)[C@H](Cc2c[nH]c3ccccc23)NC(=O)[C@H](CC(=O)O)NC(=O)[C@H](Cc2ccc(O)cc2)NC(=O)[C@H](Cc2ccccc2)NC(=O)CSC[C@@H](C(=O)NCC(N)=O)NC(=O)[C@H](CO)NC(=O)[C@H](C(C)C)NC(=O)[C@H](CC(C)C)NC(=O)[C@H](CC(N)=O)NC1=O` [Compound 1803] ({CH2CO}-FYDWL[Bip]V[NMeA][Nva]NLVSCG-NH2; thioether N-14), the IC50 under setting [1] was determined as 0.2 µM.
For the molecule `CC(C)C[C@@H]1NC(=O)[C@H](CCCNC(=N)N)NC(=O)[C@@H]([C@H](C)O)NC(=O)[C@H](C)N(C)C(=O)[C@H](CCCNC(=N)N)NC(=O)[C@H](Cc2ccc(-c3ccccc3)cc2)NC(=O)[C@H](C(C)C)NC(=O)[C@H](Cc2c[nH]c3ccccc23)NC(=O)[C@H](CC(=O)O)NC(=O)[C@H](Cc2ccc(O)cc2)NC(=O)[C@H](Cc2ccccc2)NC(=O)CSC[C@@H](C(=O)N[C@@H](C)C(N)=O)NC(=O)[C@H]([C@@H](C)O)NC(=O)[C@H](C(C)C)NC1=O` [Compound 1058] ({CH2CO}-FYDWV[Bip]R[NMeA][dT]RLVTCA-NH2; thioether N-14), the IC50 under setting [1] came out at 0.91 µM.
In the case of `CC(C)C[C@@H]1NC(=O)[C@H](CCN)NC(=O)[C@@H](CC(C)C)NC(=O)[C@H](C)N(C)C(=O)[C@H](CCCNC(N)=O)NC(=O)[C@H](Cc2ccc(-c3ccccc3)cc2)NC(=O)[C@H](C(C)C)NC(=O)[C@H](Cc2c[nH]c3ccccc23)NC(=O)[C@H](CC(=O)O)NC(=O)[C@H](Cc2cccnc2)NC(=O)[C@H](CC(N)=O)NC(=O)CSC[C@@H](C(=O)N[C@@H](C)C(N)=O)NC(=O)[C@H]([C@@H](C)O)NC(=O)[C@H](C(C)C)NC1=O` [Compound 1318] ({CH2CO}-N[3Pal]DWV[Bip][Cit][NMeA][dL][Dab]LVTCA-NH2; thioether N-14), the IC50 under setting [1] turned out to be 0.02 µM.
In the case of `CCC[C@@H]1NC(=O)[C@H](CC(C)C)NC(=O)[C@H](CCCNC(=N)N)NC(=O)[C@@H](CC(C)C)NC(=O)[C@H](C)N(C)C(=O)[C@H](CCCNC(=N)N)NC(=O)[C@H](Cc2ccc(-c3ccccc3)cc2)NC(=O)[C@H](C(C)C)NC(=O)[C@H](Cc2c[nH]c3ccccc23)NC(=O)[C@H](CC(=O)O)NC(=O)[C@H](Cc2ccc(O)cc2)NC(=O)[C@H](Cc2ccccc2)NC(=O)CSC[C@@H](C(=O)N[C@@H](C)C(N)=O)NC(=O)[C@H]([C@@H](C)O)NC1=O` [Compound 1112] ({CH2CO}-FYDWV[Bip]R[NMeA][dL]RL[Nva]TCA-NH2; thioether N-14), under setting [1], the IC50 was 0.1 µM.
As for `CC(C)C[C@@H]1NC(=O)[C@H](Cc2c[nH]c3ccccc23)NC(=O)[C@H](CC(=O)O)NC(=O)[C@H](Cc2ccc(C(=O)O)cc2)NC(=O)[C@H](Cc2cccnc2)NC(=O)CSC[C@@H](C(=O)N[C@@H](C)C(N)=O)NC(=O)[C@H](CO)NC(=O)[C@H](C(C)C)NC(=O)[C@H](CC(C)C)NC(=O)[C@H](CCCCN)NC(=O)[C@@H](C)NC(=O)[C@H](C)N(C)C(=O)[C@H](CCC(=O)O)NC(=O)[C@H](Cc2ccc(-c3ccccc3)cc2)NC1=O` [Compound 1761] ({CH2CO}-[3Pal][Phe(4-COOH)]DWL[Bip]E[NMeA][dA]KLVSCA-NH2; thioether N-14), under setting [1], the IC50 was determined as 0.03 µM.
Take `Cc1ccccc1CC1NC(=O)[C@H](C)N(C)C(=O)[C@H](CCCNC(=N)N)NC(=O)[C@H](Cc2ccc(-c3ccccc3)cc2)NC(=O)[C@H](C(C)C)NC(=O)[C@H](Cc2c[nH]c3ccccc23)NC(=O)[C@H](CC(=O)O)NC(=O)[C@H](Cc2ccc(O)cc2)NC(=O)[C@H](Cc2ccccc2)NC(=O)CSC[C@@H](C(=O)N[C@@H](C)C(N)=O)NC(=O)[C@H]([C@@H](C)O)NC(=O)[C@H](C(C)C)NC(=O)[C@H](CC(C)C)NC(=O)[C@H](CCCNC(=N)N)NC1=O` (stereo partly drawn) [Compound 1065] ({CH2CO}-FYDWV[Bip]R[NMeA][ξPhe(2-Me)]RLVTCA-NH2; thioether N-14): under setting [1], the IC50 was 0.11 µM.
